Experiment [1] has as its target T1, mPGES-1 (Homo sapiens, UniProt O14684).
T1 sequence (O14684 1-152): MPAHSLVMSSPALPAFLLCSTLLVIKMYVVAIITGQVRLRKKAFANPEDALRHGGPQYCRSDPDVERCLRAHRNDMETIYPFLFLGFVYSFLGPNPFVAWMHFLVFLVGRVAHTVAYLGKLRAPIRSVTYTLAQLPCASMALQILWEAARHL
As to the kind of experiment: mPGES-1 enzyme assay (HTRF detection of PGE2). In kind it is biochemical. Set-up: made in house; host or cells: Rosetta E. coli (membrane/microsome fraction). As to conditions: recombinant human mPGES-1 microsomes, PGH2 2 μM, Table A; read-out: mPGES-1 inhibitory effect, IC50, enzyme assay. As to the method: Microsomes from Rosetta E. coli bacteria expressing recombinant human mPGES-1 can be derived as described below:
Inoculate 5 ml LB with Ampicilin (50 μg/ml) and Chloramphenicol (34 μg/ml) with bacteria from freeze culture. Incubate 8 h at 37° C. with 200 rpm. Thereafter, inoculate 500-1000 ml LB containing Amp and Chloro with the 5 ml on culture and grow to OD640 of 0.8-1.0. Chill the culture to +4° C. before induction. Induce the culture with IPTG at a final concentration of 400 μM. Express the protein at room temp 18-23° C. with 200 rpm shaking over night.
The following steps can be performed on the following day: • 1. Spin down the cells in 250 ml centrifuge flasks for 15 min at 7000 rpm (Beckmann Coulte Avanti J-E centrifuge) • 2. Dissolve the pellet from 250 ml culture in 12.5 ml homogenization buffer • 3. (15 mM Tris-HCL pH8, 1 mM EDTA pH8, […], 2.5 mM GSH, 1 Tablet Protease inhibitor per 50 ml buffer) • 4. Disintegrate the cells by sonication, 5×10 seconds at 48% amplitude of a 750 W sonifier • 5. Add 2.5 ml MgCl2 (100 mM) and DNase 12.5 μl (0.8 mg/ml) and incubate on ice for 30 min • 6. Spin down the bacteria debris and save the supernatant, 7000 rpm for 15 min • 7. Isolate the protein containing membranes in the supernatant by ultracentrifugation 120000×g for 2 hour at 4° C. (Sorvall T880 rotor). • 8. Discard the supernatant and dissolve the pellet in 20 mM Potassium phosphate buffer pH 7.4 (KH2PO4 and K2HPO4) buffer by sonication (5×10 s, 30% of a 50 W sonifier) and aliquot the enzyme and store aliquots at −80° C.
Before each experiment is performed an aliquot of the enzyme is thawed and it can then be dissolved in 0.1 M Potassium phosphate buffer pH7.4 (KH2PO4 and K2HPO4) buffer containing 2.5 mM GSH.
The aim of this assay is the determine the affinity of a test compound for the mPGES-1 enzyme.
47 μl of recombinant human mPGES-1 (˜0.5 μg protein/well) containing microsomal suspension in a buffer containing GSH, (2.5 mmol/L L-Glutathione reduced, dissolved in 0.1 mol/L Phosphat Buffer pH 7.4) is dispensed in a 384-well plate and thereafter 1 μl of the test compound(s) is/are added and incubated for 25 minutes at room temperature. The enzyme reaction is started by the addition of 2 μl PGH2 (final conc. 2 μM) dissolved in water-free Diglyme. After 60 seconds the reaction is terminated by addition of a stop solution containing FeCl2 (10 μL 0.074 mol/l FeCl2). The samples are diluted between 1:25 in PBS (Phosphate Buffered Saline). 10 μl of the diluted samples are transferred to 384-well low volume plate. In order to quantify the amount of PGE2 that has been formed, a homogenous time resolved fluorescent (HTRF) detecting of PGE2 has been performed using a commercially available kit from Cisbio according to the manufactures recommendation. This HTRF-based assay has been described in detail (see: Goedken et al., J Biomol Screen, 2008, 13(7), 619-625). Briefly, the diluted samples are mixed with 5 μl PGE2-d2 conjungate and 5 μl anti-PGE2 cryptate conjungate. After an incubation period of the plates over night, the fluorescence is measured by the use of an appropriate microplate reader.
The fluorescence of Europium cryptate (maxex=307 nm, maxem=620 nm) and d2-PGE2 (maxex=620 nm, maxem=665 nm) are measured.
The extent of the specific HTRF is measured as a ratio of the emission intensity at 665 nm vs. that at 620 nm at an excitation puls of 320 nm. The quantification plate contains also wells with different concentrations of PGE2 as calibration curve for the calculation of the PGE2 concentrations from the HTRF ratio values.
From all mPGES enzyme assay the background is subtracted and the IC50 is calculated over a nonlinear regression with conventional software.
(In general: TR-FRET usually uses a lanthanide donor and a delayed reading to cut background.)

In experiment [2] the target is T1, mPGES-1. Briefly: A549 cell-based assay (PGE2 formation, IL-1β stimulated, 50% human serum). The conditions noted are these: A549 cells, IL-1β 5 ng/ml, 20-24 h, Table B, read-out: mPGES-1 inhibitory effect, IC50, cell assay. On the set-up: host or cells: A549 cells. As to the method:
Although the enzymatic assay is a high throughput assay the disadvantage is that it uses a recombinant protein which is not in its natural environment. Accordingly a cellular assay was established in which a cell line of human origin (A549) expressing the mPGES-1 protein was used. In addition in order to mimic the situation in humans in which compounds can be bound to plasma proteins 50% human serum is added in the assay. By having the combination of testing mPGES-1 in a cellular environment and the presence of 50% human serum this assay has a higher relevance to judge the therapeutic potential of a mPGES-inhibitor than the pure enzyme assay.
A549 cells (ATCC: CCL-185) are grown to about 90% confluence in F-12K Nutrient Mixture (Kaighn's Mod. Gibco) containing 10% FBS in a humified incubator at 37° C. and 5% CO2. Cells were detached using Trypsin-EDTA. A549 cells were seeded in a 384-well collagene plate at a density of 7000 cells/well (50 μl) in F-12 medium containing 1% Penicillin-Streptomycin and 50% human serum. The cells were allowed to attach for 3-4 h. After that the cells were incubated for 20-24 h in F-12k medium supplemented with 50% human serum, 1% Penicillin-Streptomycin and containing IL-1β at a final concentration of 5 ng/ml as well as 10 nM arachidonic acid in the presence of a vehicle or a test compound. The total volume is 100 μl.
Concentrations of PGE2 in the cell free medium (10 μl) were measured using a commercially available HTRF kit from Cisbio (as described above). The PGE2 formation in the absence of test compound was taken as 100%.
IC50 values were derived from at 6-8 point titrations using conventional software.

This is an account of results in patent US8486968B2, “Compounds” (Boehringer Ingelheim International GmbH, priority 2010, dated 2013).

The structures appear in SMILES notation.

With `Cn1c(Nc2cc(CNC(=O)C3(C(F)(F)F)CC3)ccc2Cl)nc2cc(C(=O)N[C@H]3CC[C@H](C(F)(F)F)CC3)c(N3CCC(C(F)(F)F)CC3)nc21` [Example 1, N-(trans-4-Trifluoromethyl-cyclohexyl)-2-{2-chloro-5-[(1-trifluoromethyl-cyclopropyl-carbonylamino)methyl]-phenylamino}-5-[4-trifluoromethyl-piperidinyl]-3-methyl-3H-imidazo[4,5-b]pyridine-6-carboxamide], the IC50 worked out at 5 nM in experiment [1] and 7 nM in experiment [2]. Taken in the same sequence, the figures for `Cn1c(Nc2c(Cl)ccc(CNC(=O)C(C)(C)C)c2Cl)nc2cc(C(=O)N[C@H]3CC[C@H](C(F)(F)F)CC3)c(N3CCC(F)CC3)nc21` [Example 2, N-(trans-4-Trifluoromethyl-cyclohexyl)-2-{2,6-dichloro-3-[(2,2-dimethyl-propionylamino)-methyl]-phenylamino}-5-[-fluoro-piperidinyl]-3-methyl-3H-imidazo[4,5-b]pyridine-6-carboxamide] were 8 nM and 2 nM. Turning to `CC(C)(C)C(=O)NCc1ccc(Cl)c(Nc2nc3cc(C(=O)N[C@H]4CC[C@H](C(F)(F)F)CC4)c(N4CCC(F)CC4)nc3[nH]2)c1Cl` [Example 3, N-(trans-4-Trifluoromethyl-cyclohexyl)-2-{2,6-dichloro-3-[(2,2-dimethyl-propionylamino)-methyl]-phenylamino}-5-[4-fluoro-piperidinyl]-3H-imidazo[4,5-b]pyridine-6-carboxamide], the IC50 in experiment [1] turned out to be 3 nM; in experiment [2], 2 nM. The like results for `CN(CC(F)F)c1nc2[nH]c(Nc3c(Cl)ccc(CNC(=O)C(C)(C)C)c3Cl)nc2cc1C(=O)N[C@H]1CC[C@H](C(F)(F)F)CC1` [Example 4] were, in that order, 1 nM and 3 nM. Taken in the same sequence, the figures for `CN(CC(F)F)c1nc2c(cc1C(=O)N[C@H]1CC[C@H](C(F)(F)F)CC1)nc(Nc1cc(CNC(=O)C3(C(F)(F)F)CC3)ccc1Cl)n2C` [Example 5] were 9 nM and 58 nM. Turning to `COCCN(C)c1nc2c(cc1C(=O)N[C@H]1CC[C@H](C(F)(F)F)CC1)nc(Nc1cc(CNC(=O)C3(C(F)(F)F)CC3)ccc1Cl)n2C` [Example 6], the IC50 in experiment [1] turned out to be 9 nM.

Regarding `CC(C)(C)C(=O)NCc1ccc(Cl)c(Nc2nc3cc(C(=O)N[C@H]4CC[C@H](C(F)(F)F)CC4)c(N4CC[C@@H](F)C4)nc3[nH]2)c1Cl` [Example 7], the IC50 in experiment [1] is 4 nM; in experiment [2], 11 nM. With `CC(C)(C)C(=O)NCc1ccc(Cl)c(Nc2nc3cc(C(=O)N[C@H]4CC[C@H](C(F)(F)F)CC4)c(N4CC[C@H](F)C4)nc3[nH]2)c1Cl` [Example 8], the IC50 stood at 2 nM in experiment [1] and 11 nM in experiment [2]. The like results for `CC(C)(C)C(=O)NCc1ccc(Cl)c(Nc2nc3cc(C(=O)N[C@H]4CC[C@H](C(F)(F)F)CC4)c(N4CCC(F)(F)C4)nc3[nH]2)c1Cl` [Example 9] were, in that order, 2 nM and 6 nM.

For the compound `CN(CC(F)F)c1nc2[nH]c(Nc3c(Cl)ccc(CNC(=O)C(C)(C)C)c3Cl)nc2cc1C(=O)NC1CCC(F)(F)CC1` [Example 10], the IC50 in experiment [1] is 1 nM; in experiment [2], 8 nM. In the case of `CN(CC(F)F)c1nc2[nH]c(Nc3c(Cl)ccc(CNC(=O)C(C)(C)C)c3Cl)nc2cc1C(=O)NCC(F)F` [Example 11], the figures for the IC50 in experiment [1] and in experiment [2] were 10 nM and 47 nM, respectively. Regarding `CC(C)(C)C(=O)NCc1ccc(Cl)c(Nc2nc3cc(C(=O)N[C@H]4CC[C@H](C(F)(F)F)CC4)c(N4CC5CC5C4)nc3[nH]2)c1Cl` (stereo partly drawn) [Example 12], the IC50 in experiment [1] and in experiment [2] was 2 nM each time.

For the compound `CC(C)(C)OC(=O)NCc1cc(F)c(Cl)c(Nc2nc3cc(C(=O)N[C@H]4CC[C@H](C(F)(F)F)CC4)c(N4CCC(F)CC4)nc3[nH]2)c1Cl` [Example 14, N-(trans-4-Trifluoromethyl-cyclohexyl)-2-{2,6-dichloro-5-fluoro-3-[(tert.butoxycarbonylamino)-methyl]-phenylamino}-5-[4-fluoro-piperidinyl]-3H-imidazo[4,5-b]pyridine-6-carboxamide], the IC50 worked out at 35 nM in experiment [1] and 86 nM in experiment [2].

Turning to `CC(C)(C)C(=O)NCc1cc(F)c(Cl)c(Nc2nc3cc(C(=O)N[C@H]4CC[C@H](C(F)(F)F)CC4)c(N4CCC(F)CC4)nc3[nH]2)c1Cl` [Example 15, N-(trans-4-Trifluoromethyl-cyclohexyl)-2-{2,6-dichloro-5-fluoro-3-[(2,2-dimethyl-propionylamino)-methyl]-phenylamino}-5-[4-fluoro-piperidinyl]-3H-imidazo[4,5-b]pyridine-6-carboxamide], the IC50 in experiment [1] is 2 nM; in experiment [2] it was 10 nM. Taken in the same sequence, the figures for `CN(Cc1nccn1C)c1nc2c(cc1C(=O)N[C@H]1CC[C@H](C(F)(F)F)CC1)nc(Nc1c(Cl)ccc(CNC(=O)C(C)(C)C)c1Cl)n2C` [Example 16] were 3 nM and 3 nM. The like results for `Cn1c(Nc2c(Cl)ccc(CNC(=O)C(C)(C)C)c2Cl)nc2cc(C(=O)N[C@H]3CC[C@H](C(F)(F)F)CC3)c(N3CC[C@@H](F)C3)nc21` [Example 18] were, in that order, 2 nM and 2 nM. The like results for `Cn1c(Nc2c(Cl)ccc(CNC(=O)C(C)(C)C(F)(F)F)c2Cl)nc2cc(C(=O)N[C@H]3CC[C@H](C(F)(F)F)CC3)c(N3CC[C@@H](F)C3)nc21` [Example 19] were, in that order, 4 nM and 6 nM.

With `CN(c1nc2c(cc1C(=O)N[C@H]1CC[C@H](C(F)(F)F)CC1)nc(Nc1c(Cl)ccc(CNC(=O)C(C)(C)C)c1Cl)n2C)C1COC1` [Example 20], the IC50 in experiment [1] was 2 nM; in experiment [2], 3 nM. For the compound `Cn1c(Nc2c(Cl)ccc(CNC(=O)C(C)(C)C)c2Cl)nc2cc(C(=O)NC(Cc3ccccc3)C(F)(F)F)c(N3CCC(C(F)(F)F)CC3)nc21` (stereo not drawn) [Example 39], the IC50 in experiment [2] is 25 nM.

The term IC50 denotes the concentration needed to halve the response being measured.
